Consider 13 molecules from patent US10604531B2, “Enhancer of zeste homolog 2 inhibitors” (GLAXOSMITHKLINE INTELLECTUAL PROPERTY (NO.2) LIMITED, priority 2016, dated 2020).

One may read the IC50 as the concentration at which inhibition is half-maximal. Low readings indicate higher potency, high ones lower potency.

Data set [1] concerns the target EZH2 within the PRC2 complex (FLAG-EZH2, EED, SUZ12, RbAp48, AEBP2) (Homo sapiens (Human), UniProt Q15910). Description: EZH2 methyltransferase scintillation proximity assay (SPA), PRC2 complex. The format is biochemical. The conditions noted are these: 3H-SAM, biotinylated histone H3K27 peptide, 60 min at room temperature; values of 10 nM approach the assay's limit of detection. On the procedure: Compounds contained herein were evaluated for their ability to inhibit the methyltransferase activity of EZH2 within the PRC2 complex. Human PRC2 complex was prepared by co-expressing each of the 5 member proteins (FLAG-EZH2, EED, SUZ12, RbAp48, AEBP2) in Sf9 cells followed by co-purification. Enzyme activity was measured in a scintillation proximity assay (SPA) where a tritiated methyl group is transferred from 3H-SAM to a lysine residue on a biotinylated, unmethylated peptide substrate derived from histone H3. The peptides were captured on streptavidin-coated SPA beads and the resulting signal was read on a ViewLux plate reader.
Part A. Compound Preparation
• 1. Prepare 10 mM stock of compounds from solid in 100% DMSO. • 2. Set up an 11-point serial dilution (1:4 dilution, top concentration 10 mM) in 100% DMSO for each test compound in a 384 well plate leaving columns 6 and 18 for DMSO controls. • 3. Dispense 10 nL of compound from the dilution plate into reaction plates (Corning, 384-well polystyrene NBS, Cat #3673). Part B. Reagent Preparation Prepare the following solutions: • 1. 1× Base Buffer, 50 mM Tris-HCl, pH 8, 2 mM MgCl2: Per 1 L of base buffer, combine 1 M Tris-HCl, pH 8 (50 mL), 1 M MgCl2 (2 mL), and distilled water (948 mL). • 2. 1× Assay Buffer: Per 10 mL of 1× Assay Buffer, combine 1× Base Buffer (9.96 mL), 1 M DTT (40 uL), and 10% Tween-20 (1 uL) to provide a final concentration of 50 mM Tris-HCl, pH 8, 2 mM MgCl2, 4 mM DTT, 0.001% Tween-20. • 3. 2× Enzyme Solution: Per 10 mL of 2× Enzyme Solution, combine 1× Assay Buffer (9.99 mL) and 3.24 uM EZH2 5 member complex (6.17 uL) to provide a final enzyme concentration of 1 nM. • 4. SPA Bead Solution: Per 1 mL of SPA Bead Solution, combine Streptavidin coated SPA beads (PerkinElmer, Cat # RPNQ0261, 40 mg) and 1× Assay Buffer (1 mL) to provide a working concentration of 40 mg/mL. • 5. 2× Substrate Solution: Per 10 mL of 2× Substrate Solution, combine 40 mg/mL SPA Bead Solution (375 uL), 1 mM biotinylated histone H3K27 peptide (200 uL), 12.5 uM 3H-SAM (240 uL; 1 mCi/mL), 1 mM cold SAM (57 uL), and 1× Assay Buffer (9.13 mL) to provide a final concentration of 0.75 mg/mL SPA Bead Solution, 10 uM biotinylated histone H3K27 peptide, 0.15 uM 3H-SAM (˜12 uCi/mL 3H-SAM), and 2.85 uM cold SAM. • 6. 2.67× Quench Solution: Per 10 mL of 2.67× Quench Solution, combine 1× Assay Buffer (9.73 mL) and 10 mM cold SAM (267 uL) to provide a final concentration of 100 uM cold SAM. Part C. Assay Reaction in 384-well Grenier Bio-One Plates Compound Addition • 1. Stamp 10 nL/well of 1000× Compound to test wells (as noted above). • 2. Stamp 10 nL/well of 100% DMSO to columns 6 & 18 (high and low controls, respectively). Assay • 1. Dispense 5 uL/well of 1× Assay Buffer to column 18 (low control reactions). • 2. Dispense 5 uL/well of 2× Substrate Solution to columns 1-24 (note: substrate solution should be mixed to ensure homogeneous bead suspension before dispensing into matrix reservoir). • 3. Dispense 5 uL/well of 2× Enzyme Solution to columns 1-17, 19-24. • 4. Incubate the reaction for 60 min at room temperature. Quench • 1. Dispense 6 uL/well of the 2.67× Quench Solution to columns 1-24. • 2. Seal assay plates and spin for ˜1 min at 500 rpm. • 3. Dark adapt plates in the ViewLux instrument for 15-60 min. Read Plates • 1. Read the assay plates on the Viewlux Plate Reader utilizing the 613 nm emission filter or clear filter (300 s exposure). Reagent addition can be done manually or with automated liquid handler. Results
Percent inhibition was calculated relative to the DMSO control for each compound concentration and the resulting values were fit using standard IC50 fitting parameters within the ABASE data fitting software package.
In general terms: Scintillation proximity formats need no separation of bound from free tracer.

The conditions of data set [2]: for XRPD after DVS experiment: form change or change in crystallinity: post DVS sample.

SMILES strings stand for the structures. A value given as a limit tells only on which side of the number the result lay.

Chain of EZH2 within the PRC2 complex (FLAG-EZH2, EED, SUZ12, RbAp48, AEBP2) (Q15910 whole entry): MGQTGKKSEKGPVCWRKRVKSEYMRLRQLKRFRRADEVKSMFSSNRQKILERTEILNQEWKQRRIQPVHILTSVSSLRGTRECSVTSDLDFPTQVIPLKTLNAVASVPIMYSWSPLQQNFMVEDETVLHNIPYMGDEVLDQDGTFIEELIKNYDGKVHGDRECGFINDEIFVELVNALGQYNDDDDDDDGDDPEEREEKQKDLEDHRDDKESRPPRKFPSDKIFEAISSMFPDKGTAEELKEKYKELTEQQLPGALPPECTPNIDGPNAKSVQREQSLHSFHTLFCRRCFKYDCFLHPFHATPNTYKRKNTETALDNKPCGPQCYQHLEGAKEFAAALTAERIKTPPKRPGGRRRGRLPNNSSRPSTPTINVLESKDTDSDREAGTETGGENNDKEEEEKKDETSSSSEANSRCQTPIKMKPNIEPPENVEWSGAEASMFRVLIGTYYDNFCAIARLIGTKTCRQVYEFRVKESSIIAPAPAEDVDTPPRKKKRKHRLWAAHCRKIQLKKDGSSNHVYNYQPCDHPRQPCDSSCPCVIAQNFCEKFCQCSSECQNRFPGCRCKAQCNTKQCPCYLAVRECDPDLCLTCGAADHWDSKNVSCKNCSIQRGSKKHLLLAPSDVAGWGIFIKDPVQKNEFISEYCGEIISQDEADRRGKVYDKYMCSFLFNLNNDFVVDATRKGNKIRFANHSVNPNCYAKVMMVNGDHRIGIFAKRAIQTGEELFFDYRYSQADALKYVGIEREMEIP
Chain of EZH2 within the PRC2 complex (FLAG-EZH2, EED, SUZ12, RbAp48, AEBP2) (O75530 whole entry partner): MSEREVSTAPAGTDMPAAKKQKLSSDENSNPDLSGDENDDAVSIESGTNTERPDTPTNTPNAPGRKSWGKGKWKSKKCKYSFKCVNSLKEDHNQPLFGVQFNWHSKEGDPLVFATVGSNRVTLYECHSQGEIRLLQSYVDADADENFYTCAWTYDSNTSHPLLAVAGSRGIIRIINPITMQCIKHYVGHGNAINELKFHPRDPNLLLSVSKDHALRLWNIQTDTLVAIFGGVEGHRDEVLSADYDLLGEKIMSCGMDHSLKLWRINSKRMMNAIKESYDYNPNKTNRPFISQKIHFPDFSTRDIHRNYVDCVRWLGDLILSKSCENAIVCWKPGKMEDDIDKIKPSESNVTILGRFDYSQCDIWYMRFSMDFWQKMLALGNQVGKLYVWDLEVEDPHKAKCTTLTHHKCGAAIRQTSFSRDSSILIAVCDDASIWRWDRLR
Chain of EZH2 within the PRC2 complex (FLAG-EZH2, EED, SUZ12, RbAp48, AEBP2) (Q15022 whole entry partner): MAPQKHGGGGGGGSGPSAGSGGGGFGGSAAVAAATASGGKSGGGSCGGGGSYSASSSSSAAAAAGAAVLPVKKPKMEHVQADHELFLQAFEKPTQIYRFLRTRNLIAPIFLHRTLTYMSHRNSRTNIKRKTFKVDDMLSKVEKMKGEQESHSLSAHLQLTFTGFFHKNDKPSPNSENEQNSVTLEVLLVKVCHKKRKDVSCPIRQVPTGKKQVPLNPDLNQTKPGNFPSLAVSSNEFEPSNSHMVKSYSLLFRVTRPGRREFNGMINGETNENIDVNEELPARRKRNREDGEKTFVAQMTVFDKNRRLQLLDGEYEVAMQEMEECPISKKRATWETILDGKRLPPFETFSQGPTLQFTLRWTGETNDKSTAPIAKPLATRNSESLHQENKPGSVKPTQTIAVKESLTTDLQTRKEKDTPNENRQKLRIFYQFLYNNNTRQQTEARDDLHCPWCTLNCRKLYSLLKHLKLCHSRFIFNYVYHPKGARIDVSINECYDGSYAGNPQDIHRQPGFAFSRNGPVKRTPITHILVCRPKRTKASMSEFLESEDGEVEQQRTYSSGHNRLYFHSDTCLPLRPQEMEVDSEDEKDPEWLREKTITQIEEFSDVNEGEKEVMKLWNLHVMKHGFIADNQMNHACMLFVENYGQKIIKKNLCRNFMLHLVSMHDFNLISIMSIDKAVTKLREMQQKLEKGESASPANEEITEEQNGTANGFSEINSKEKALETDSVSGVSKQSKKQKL
Chain of EZH2 within the PRC2 complex (FLAG-EZH2, EED, SUZ12, RbAp48, AEBP2) (Q09028 whole entry partner): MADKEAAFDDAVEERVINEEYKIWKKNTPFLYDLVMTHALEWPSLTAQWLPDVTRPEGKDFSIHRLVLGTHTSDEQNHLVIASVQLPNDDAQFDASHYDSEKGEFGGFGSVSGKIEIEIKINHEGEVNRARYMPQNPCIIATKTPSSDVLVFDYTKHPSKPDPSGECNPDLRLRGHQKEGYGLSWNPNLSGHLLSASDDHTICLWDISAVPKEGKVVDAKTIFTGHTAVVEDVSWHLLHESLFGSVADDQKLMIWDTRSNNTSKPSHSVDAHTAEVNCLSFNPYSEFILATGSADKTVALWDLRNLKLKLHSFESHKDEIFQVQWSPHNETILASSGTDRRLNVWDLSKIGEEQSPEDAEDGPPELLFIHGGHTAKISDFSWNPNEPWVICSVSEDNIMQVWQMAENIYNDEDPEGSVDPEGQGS
Chain of EZH2 within the PRC2 complex (FLAG-EZH2, EED, SUZ12, RbAp48, AEBP2) (Q6ZN18 whole entry partner): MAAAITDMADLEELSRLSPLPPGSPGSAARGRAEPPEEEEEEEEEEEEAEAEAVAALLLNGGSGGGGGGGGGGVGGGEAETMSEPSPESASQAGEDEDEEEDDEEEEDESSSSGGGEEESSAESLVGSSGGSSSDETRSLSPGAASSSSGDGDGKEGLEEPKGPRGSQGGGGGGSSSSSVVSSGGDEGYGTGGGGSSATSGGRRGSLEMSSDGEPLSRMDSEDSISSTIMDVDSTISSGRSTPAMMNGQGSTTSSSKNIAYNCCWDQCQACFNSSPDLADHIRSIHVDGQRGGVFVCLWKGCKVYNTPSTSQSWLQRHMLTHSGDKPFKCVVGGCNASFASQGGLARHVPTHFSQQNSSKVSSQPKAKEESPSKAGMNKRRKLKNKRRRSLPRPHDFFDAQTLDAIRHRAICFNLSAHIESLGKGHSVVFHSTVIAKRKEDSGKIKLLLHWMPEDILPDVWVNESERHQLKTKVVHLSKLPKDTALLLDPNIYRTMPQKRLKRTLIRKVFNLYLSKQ

`Cc1cc(C)c(CN2CCCc3sc([C@H](C)C4CCN(CC(C)(C)C)CC4)c(C)c3C2=O)c(=O)[nH]1` [Example 1, (R)-5-((4,6-Dimethyl-2-oxo-1,2-dihydropyridin-3-yl)methyl)-3-methyl-2-(1-(1-neopentylpiperidin-4-yl)ethyl)-5,6,7,8-tetrahydro-4H-thieno[3,2-c]azepin-4-one] gave an IC50 in data set [1] not above 10 nM. On the same count and under the same terms, as for `Cc1cc(C)c(CN2CCCc3sc([C@H](C)C4CCN(CC5CCC5)CC4)c(C)c3C2=O)c(=O)[nH]1` [Example 2, (R)-2-(1-(1-(Cyclobutylmethyl)piperidin-4-yl)ethyl)-5-((4,6-dimethyl-2-oxo-1,2-dihydropyridin-3-yl)methyl)-3-methyl-5,6,7,8-tetrahydro-4H-thieno[3,2-c]azepin-4-one], the figure is not above 10 nM; as for `Cc1cc(C)c(CN2CCCc3sc([C@H](C)C4CCN(CC(C)C)CC4)c(C)c3C2=O)c(=O)[nH]1` [Example 3, (R)-5-((4,6-Dimethyl-2-oxo-1,2-dihydropyridin-3-yl)methyl)-2-(1-(1-isobutylpiperidin-4-yl)ethyl)-3-methyl-5,6,7,8-tetrahydro-4H-thieno[3,2-c]azepin-4-one], not above 10 nM; as for `Cc1cc(C)c(CN2CCCc3sc([C@H](C)C4CCN(CC5CCCC5)CC4)c(C)c3C2=O)c(=O)[nH]1` [Example 4, (R)-2-(1-(1-(Cyclopentylmethyl)piperidin-4-yl)ethyl)-5-((4,6-dimethyl-2-oxo-1,2-dihydropyridin-3-yl)methyl)-3-methyl-5,6,7,8-tetrahydro-4H-thieno[3,2-c]azepin-4-one], not above 10 nM. The same measure, in the same setting: the result for `CCC(C)(C)CN1CCC([C@@H](C)c2sc3c(c2C)C(=O)N(Cc2c(C)cc(C)[nH]c2=O)CCC3)CC1` [Example 5, (R)-5-((4,6-Dimethyl-2-oxo-1,2-dihydropyridin-3-yl)methyl)-2-(1-(1-(2,2-dimethylbutyl)piperidin-4-yl)ethyl)-3-methyl-5,6,7,8-tetrahydro-4H-thieno[3,2-c]azepin-4-one] reads not above 10 nM; that for `Cc1cc(C)c(CN2CCCc3sc([C@H](C)C4CCN(CC(C)(C)F)CC4)c(C)c3C2=O)c(=O)[nH]1` [Example 6, (R)-5-((4,6-Dimethyl-2-oxo-1,2-dihydropyridin-3-yl)methyl)-2-(1-(1-(2-fluoro-2-methylpropyl)piperidin-4-yl)ethyl)-3-methyl-5,6,7,8-tetrahydro-4H-thieno[3,2-c]azepin-4-one], not above 10 nM; that for `Cc1cc(C)c(CN2CCCc3sc([C@H](C)C4CCN(CC5CC5)CC4)c(C)c3C2=O)c(=O)[nH]1` [Example 7, (R)-2-(1-(1-(Cyclopropylmethyl)piperidin-4-yl)ethyl)-5-((4,6-dimethyl-2-oxo-1,2-dihydropyridin-3-yl)methyl)-3-methyl-5,6,7,8-tetrahydro-4H-thieno[3,2-c]azepin-4-one], not above 10 nM. Still for that read-out and setting: as for `Cc1cc(C)c(CN2CCCc3sc([C@H](C)C4CCN(CC5(C)CCCC5)CC4)c(C)c3C2=O)c(=O)[nH]1` [Example 8, (R)-5-((4,6-Dimethyl-2-oxo-1,2-dihydropyridin-3-yl)methyl)-3-methyl-2-(1-(1-((1-methylcyclopentyl)methyl)piperidin-4-yl)ethyl)-5,6,7,8-tetrahydro-4H-thieno[3,2-c]azepin-4-one], the figure is not above 10 nM. As to `Cc1cc(C)c(CN2CCCc3sc([C@H](C)C4CCN(CC56CCC(CC5)CC6)CC4)c(C)c3C2=O)c(=O)[nH]1` [Example 9, (R)-2-(1-(1-(Bicyclo[2.2.2]octan-1-ylmethyl)piperidin-4-yl)ethyl)-5-((4,6-dimethyl-2-oxo-1,2-dihydropyridin-3-yl)methyl)-3-methyl-5,6,7,8-tetrahydro-4H-thieno[3,2-c]azepin-4-one], in data set [1], the IC50 is not above 10 nM. Same read-out and setting: the result for `Cc1cc(C)c(CN2CCCc3sc([C@H](C)C4CCN(CC5(C)CCC5)CC4)c(C)c3C2=O)c(=O)[nH]1` [Example 10, (R)-5-((4,6-Dimethyl-2-oxo-1,2-dihydropyridin-3-yl)methyl)-3-methyl-2-(1-(1-((1-methylcyclobutyl)methyl)piperidin-4-yl)ethyl)-5,6,7,8-tetrahydro-4H-thieno[3,2-c]azepin-4-one] reads not above 10 nM; that for `Cc1cc(C)c(CN2CCCc3sc([C@H](C)C4CCN(CC5(C)CC5)CC4)c(C)c3C2=O)c(=O)[nH]1` [Example 11, (R)-5-((4,6-Dimethyl-2-oxo-1,2-dihydropyridin-3-yl)methyl)-3-methyl-2-(1-(1-((1-methylcyclopropyl)methyl)piperidin-4-yl)ethyl)-5,6,7,8-tetrahydro-4H-thieno[3,2-c]azepin-4-one], not above 10 nM.

In the case of `Cc1cc(C)c(CN2CCCc3sc([C@H](C)C4CCN(CC5(C)CCC5)CC4)c(C)c3C2=O)c(=O)[nH]1.Cl` [hydrochloric acid salt of (R)-5-((4,6-dimethyl-2-oxo-1,2-dihydropyridin-3-yl)methyl)-3-methyl-2-(1-(1-((1-methylcyclobutyl)methyl)piperidin-4-yl)ethyl)-5,6,7,8-tetrahydro-4H-thieno[3,2-c]azepin-4-one], the hygroscopicity result in data set [2] (DVS isotherm 5-95% RH) is “low level of hygroscopicity”. Further, the DVS moisture uptake in data set [2] (between 5-75% RH) is approximately 0.5%. The “DVS total uptake of water” value in data set [2] (from 5-95% RH) was 0.6%. In addition, the “XRPD after DVS experiment: form change or change in crystallinity” value in data set [2] is on record as “did not show a change in crystal form or crystallinity”.

`Cc1cc(C)c(CN2CCCc3sc([C@H](C)C4CCN(CC(C)(C)C)CC4)c(C)c3C2=O)c(=O)[nH]1.Cl` [hydrochloric acid salt of (R)-5-((4,6-dimethyl-2-oxo-1,2-dihydropyridin-3-yl)methyl)-3-methyl-2-(1-(1-neopentylpiperidin-4-yl)ethyl)-5,6,7,8-tetrahydro-4H-thieno[3,2-c]azepin-4-one]: the “DVS total moisture uptake” value in data set [2] (first cycle from 40-75% RH) came out at 0.5%. For the same molecule, the “XRPD after DVS experiment: form change or change in crystallinity” value in data set [2] is recorded as “did not indicate a form change or change in crystallinity”. This molecule also registered a DVS decrease in data set [2] (second cycle, between 80-90% RH) of 0.4%. The DVS sorption in data set [2] (second cycle, from 5-80% RH) turned out to be 1.0%.
